In paper PMC5589090 (PLoS Medicine, 2017):
Several values for one entry are separate records, joined by “and”; a condition that tells them apart may be missing. Equal values may be shown once. Entries after “also recorded” stand apart in the source; their conditions may differ. Read-outs that look alike come from different tables or passages of the source.

How the values were obtained:
[1] = THU solubility and storage stability; format: physicochemical; conditions: stored at -20°C; 1 year study and about 4 years re test
Experimental: Prior to administration, a glass bottle containing THU will be brought to room temperature, and dissolved in 2 ml water with a further dilution to a final volume of 10 ml, to create a solution with a final concentration that is determined by the amount of drug in the glass vial (THU is soluble to at least 100 mg/ml in water). Using this final concentration, a volume of solution containing the appropriate dose will be removed, diluted further with water to a total volume of 30ml and given by mouth. The time between reconstitution of drug and oral administration should not exceed 60 minutes, and remaining solution is to be discarded.

[2] = cited from earlier work
[3] = set-up: method as in ref 40,59-61,63-69 (main text); 25;37-45 (protocol); conditions: 25;37-45 (protocol); cited from earlier work
nucleotide pool sizes = conditions: cited from earlier work
[4] = in vivo; cited from earlier work
mammary tumors = conditions: intraperitoneal 125-250 mg/kg thrice weekly for 6 months, rats surviving to 18 months; cited from earlier work
HbF [5] = conditions: cited from earlier work
[6] = cited from earlier work; remark: listed apart in the source
[7] = set-up: method as in ref 26 (a number printed in a supplementary file, which may have a reference list of its own: not looked up in the article's list); conditions: cited from earlier work
[8] = 4 SCD subjects, subcutaneous or oral, 30-500 days; cited from earlier work
HbF [9] = conditions: same non-human primates (n = 14); cited from earlier work
[10] = cited from earlier work; remark: listed apart in the source

## O=C1NC(O)CCN1[C@@H]1O[C@H](CO)[C@@H](O)[C@H]1O (stereo partly drawn) [THU, tetrahydrouridine]
[1]
  stability of bulk drug: demonstrate THU stability
[2]
  solubility in water: at least 100 mg/ml
[3]
  toxicity / side effects in animals and humans: No toxicities have been found; also recorded: have not identified any toxic side-effects; also recorded: no toxic side-effects have been identified; also recorded: benign toxicity profile; also recorded: no side effects observed; also recorded: has not caused toxicity
Nucleotide pool sizes
  effect on nucleotide pool sizes: no effect
[4]
  share of elimination by renal excretion: ~ 50%

## NC(=O)NO [hydroxyurea]
Mammary tumors
  incidence of mammary tumors: increased the incidence of mammary tumors
HbF [5]; SCD patients with no HbF response in the pivotal trial
  mean change in HbF after 2 years of treatment: ~0% and 0.3%
HbF [5]; hydroxyurea 15–35 mg/kg, pivotal trial
  adult SCD patients in whom HbF increased for 2 years: approximately 50%
HbF [5]; pivotal multi-center trial
  subjects who did not respond (no elevated HbF after two years): approximately 50%
HbF [5]; pivotal trial
  Average HbF increases at 2 years: 3.6%
  average total hemoglobin increase: 0.6 g/dL
[6]; package insert
  genotoxicity: genotoxic in a wide range of test systems
[6]; pancellular hematologic toxicities, ref AHFS Drug Information, 2000
  neutrophil recovery time: up to 2 weeks

## Nc1ccn([C@@H]2O[C@H](CO)[C@@H](O)C2(F)F)c(=O)n1 [gemcitabine]
[7]; with THU co-administration
  oral bioavailability: ~ 40%
[7]; without THU
  oral bioavailability: ~ 10%

## Nc1ncn([C@@H]2O[C@H](CO)[C@@H](O)[C@H]2O)c(=O)n1 [5-azacytidine]
[8]
  marrow toxicity: No marrow toxicity was observed
HbF [9]
  greater increases in HbF than cytarabine or hydroxyurea: 2 to 20 fold

## Nc1ccn([C@@H]2O[C@H](CO)[C@@H](O)[C@@H]2O)c(=O)n1 [cytarabine]
[10]
  greater exposure in mice versus monkey dose for dose: more than 100 fold
